The text below walks through data of ChEMBL document CHEMBL1201862, “PubChem BioAssay data set” (2004).

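Five compound concentrations were applied to cells in 96-well plates for 48 hours; endpoints were derived by simple linear interpolation of the resulting dose-response curve. The concentration for 50% growth inhibition is given as GI50.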 Calls of active or inactive are those of the source. Rule as the data show it: active = GI50 up to about 1.1 µM and inactive = higher.

Holding throughout (test): NCI anticancer screen, dose series, 48 h
Assay [1] deals with ACHN.
For assay [2], the system named is BT-549.
The subject of assay [3] is EKVX.
Assay [4] concerns HCT-15.
For assay [5], the system named is K562.
For assay [6], the system named is KM12.
In assay [7] the test system is M14.
The subject of assay [8] is Malme-3M.
The subject of assay [9] is NCI-H460.
Assay [10] relates to OVCAR-4.
Assay [11] has as its system PC-3.
In assay [12] the test system is SF-295.
Assay [13] concerns SF-539.
Assay [14] relates to SK-MEL-2.
Assay [15] relates to SK-OV-3.
For assay [16], the system named is TK-10.
The test system of assay [17] is UO-31.

Regarding `C/C=C/[C@@]1(OC(=O)c2ccccc2)C[C@@H]2CCCC[C@@H]21`, the GI50 is 17.7 µM (inactive) in assay [1]; 14.9 µM (inactive) in assay [2]; 16.7 µM (inactive) in assay [3]; 19.5 µM in [4]; 19.8 µM (inactive) in [5]; 17.4 µM (inactive) in assay [6]. For the same compound, the GI50 in assay [7] was 17.9 µM (inactive); in [8], 17.5 µM (inactive); in assay [9], 18.4 µM (inactive); in assay [10], 17 µM (inactive); in assay [11], 20 µM (inactive); in [12] it was 18.6 µM (inactive). Besides, the GI50 was 17.5 µM (inactive) in [13]; 13.2 µM (inactive) in assay [14]; 18.5 µM (inactive) in [15]; 15 µM (inactive) in [16]; 11 µM (inactive) in [17].

On to `CCN1CC2=C(N=c3s/c(=C\c4ccc(Cl)cc4)c(=O)n3C2c2ccc(Cl)cc2)/C(=C/c2ccc(Cl)cc2)C1` (stereo not drawn), for which the GI50 in [1] is 58.7 µM (inactive); in assay [2] it was 26.4 µM (inactive); in [3], > 100 µM (inactive); in [4] it was over 100 µM; in [5] it was > 100 µM (inactive); in assay [6], > 100 µM (inactive). In addition, the GI50 in [7] was 73.1 µM (inactive); in assay [8], > 100 µM (inactive); in assay [9] it was > 100 µM (inactive); in assay [10], > 100 µM (inactive); in assay [11], > 100 µM (inactive); in [12] it was 33 µM (inactive). Also, the GI50 in [14] was 26.6 µM (inactive); in assay [15], 16.8 µM (inactive); in assay [16] it was 18.9 µM (inactive); in assay [17] it was > 100 µM (inactive).

On to `Cn1c2ccccc2c(=O)c2cccc(C(=O)NCC(=O)O)c21`, for which the GI50 is > 100 µM (inactive) in [1]; > 100 µM (inactive) in assay [2]; 36.8 µM (inactive) in assay [3]; over 100 µM in assay [4]; > 100 µM (inactive) in assay [5]; > 100 µM (inactive) in [6]. Besides, the GI50 in assay [7], in assay [8], in assay [9], in assay [10], in [11] and in assay [12] was > 100 µM (inactive) throughout. Further, the GI50 in assay [13], in [14], in assay [15], in assay [16] and in assay [17] was > 100 µM (inactive) each time.

`NNc1ncnc2cccc(Cl)c12`: the GI50 in [1] was > 100 µM (inactive); in assay [2], > 100 µM (inactive); in assay [3], 17.8 µM (inactive); in assay [4] it was over 100 µM; in assay [5], > 100 µM (inactive); in assay [6] it was > 100 µM (inactive). For the same compound, the GI50 in assay [7] is > 100 µM (inactive); in assay [8] it was 2.02 µM (inactive); in assay [9], > 100 µM (inactive); in assay [10], > 100 µM (inactive); in assay [11] it was > 100 µM (inactive); in assay [12] it was > 100 µM (inactive). Moreover, the GI50 in [13], in [15], in assay [16] and in assay [17] was > 100 µM (inactive) in each case.

In the case of `N#CC(CCN1CCC(Nc2ccccc2)(c2nnnn2C2CCCCC2)CC1)(c1ccccc1)c1ccccc1`, the GI50 in assay [1] is > 100 µM (inactive); in [2], > 100 µM (inactive); in assay [3], > 100 µM (inactive); in [4] it was over 100 µM; in [5], > 100 µM (inactive); in assay [6], > 100 µM (inactive). The GI50 in assay [7], in [8], in assay [9], in [10], in assay [11] and in assay [12] was > 100 µM (inactive) throughout. In addition, the GI50 in [13], in [14], in assay [15], in assay [16] and in assay [17] was > 100 µM (inactive) each time.
